Assay results reported in PMC11928584, “H105A peptide eye drops promote photoreceptor survival in murine and human models of retinal degeneration” (Communications Medicine, 2025).
Where a SMILES comes first, the peptide text is derived from it.

Experiments:
[1] = test system: photoreceptors of rd10 mice; assay: ONL thickness (histology, spider plot), rd10 mice; format: in vivo, mouse; settings: for OS length and ONL thickness vs vehicle-treated or untreated eyes: daily eye drops, P21
Procedure: Both eyes were oriented before enucleation to allow sectioning along the dorsal/ventral axis. Enucleated eyes from rd10 and rd10/Serpinf1^-/- mice were incised in the cornea and fixed in 2.5% glutaraldehyde for 20 min and then in 10% neutral buffered formalin at 4 °C for at least 48 h, followed by paraffin embedding, sectioning, and staining with either H&E or immunofluorescence procedures. Slides containing retinal sections were deparaffinized by immersing the slides in various subsequent ethanol dilutions(100%, 95%,70% and 50%), then rinsed with phosphate-buffered saline, pH 7.4 (PBS, Quality Biological, 119-069-101), followed by incubation in blocking buffer containing 0.5% normal donkey serum (Abcam, ab7475), 0.5% bovine serum albumin (BSA, GoldBio, A-420-100), 0.1% Triton X-100 (Sigma, T8787-100) in PBS pH 7.4 for 2 h at room temperature. For fluorescence microscopy, antibodies, and 0.1 µg/ml DAPI were used to immunostain and counterstain the nuclei, respectively. Antibodies used in the study are listed in Supplementary Table 3. Images were acquired using a ZEIS 700 confocal microscope. Fluorescence intensity was quantified using ImageJ, and a rectangle was selected around regions of interest (ROIs), channels were split for multiple antibodies, threshold was adjusted, noise was de-speckled, and fluorescence intensity was measured.
To generate spider plots, the ONL thickness was measured from images passing through the optic nerve (ON) acquired with light microscopy of the retina sections stained with H&E or images of retina sections stained with DAPI with a dorsal-ventral orientation. The ONL thickness in the entire retina sections was measured at 5 different positions from both sides of the ON using ImageJ[28]. Alternatively, for DAPI stained images, a customed macro implemented in ImageJ was used to select only the ONL.
Fig. 4 Effect of eyedrops of 17-mer and H105A peptides on photoreceptor morphology of rd10 and rd10/Serpinf1^-/- mice. a Illustration of the experimental timeline of peptide application. RE and LE refer to the right and left eyes, respectively. Histological Evaluation. Representative microphotographs of retina sections from rd10 (b) and rd10/Serpinf1^-/- (c) mice treated with 17-mer, H105A, or R99A peptides at 1 mg/ml, or with vehicle (HBSS), compared to wild type C57BL/6 J mice. Sections were stained with hematoxylin and eosin. Spider Plot illustrate the thickness of the outer nuclear layer (ONL) in rd10 (d) and rd10/Serpinf1^-/- (e) mice. Five retinas (n = 5) per group were analyzed and each data point represents the average ± SD per location relative to the optic nerve (ON), analyzed using One-way ANOVA with Šídák’s multiple comparisons test. […]

PEDF-R = settings: cited from earlier work
[2] = test system: retinal function of rd10 mice; assay: Electroretinogram (scotopic a- and b-wave), rd10 mice; format: in vivo, mouse
Procedure: Electroretinogram (ERG) for rd10 and rd10/Serpinf1^-/- mice were dark-adapted overnight and recorded in both eyes of each animal using an Espion E2 system with ColorDome (Diagnosys LLC) with a heated surface. Briefly, pupils were dilated with 1% tropicamide (Akorn, NDC: 17478-101-12) for 10 min and mice were anesthetized with intraperitoneal injection of Zetamine™ (Ketamine hydrochloride injection, USP; VetOne, NDC 13985-584-10) at 92.5 mg/kg, and AnaSed® (xylazine injection, Akorn Pharmaceuticals, NDC 59399-110-20) at 5.5 mg/kg. Mice were placed on the heated surface and electrodes were placed in the mouth and a subdermal platinum needle electrode was placed in the back of the mouse to serve as ground. Responses were elicited with increasing light impulses with intensity from 0.0001 to 10 cd-seconds per meter squared (cd.s/m^2). Amplitudes for a-wave were measured from stimulus to the trough of the a-wave and b-wave amplitudes were measured from a-wave to b-wave trough or peak. The values from the a and b waves for both eyes were exported to Microsoft Excel to obtained amplitude values for each mouse.
Fig. 5 Effect of daily eyedrops of PEDF peptides on ERG a-wave and b-wave retinal function. a Illustration of the experimental timeline of peptide application. RE and LE refer to the right and left eyes, respectively. Representative ERG waveforms for rd10 (b) and rd10/Serpinf1^-/- (c) mice at P21 in response to a light flash (1 cd.s/m²). Amplitude (y-axis) is plotted against time in milliseconds (ms, x-axis). Treatments are indicated to the right of each plot and are color coded, with control wild type C57BL/6 J mice without peptide treatment shown in blue. A-wave and b-wave are indicated by arrows. Photoreceptor a-wave amplitudes. Averages of photoreceptor a-wave amplitudes for rd10 (d) and rd10/Serpinf1^-/- (e) mice as a function of light intensity (cd/s.m², x-axis). Responses of animals treated with 17-mer are shown in green, H105A in black, and vehicle (HBSS) in red. Wildtype responses are shown in blue. Bipolar cell b-wave amplitudes. Averages of bipolar cell b-wave amplitudes for rd10 (f) and rd10/Serpinf1^-/- (g) mice as a function of light intensity (cd/s.m², x-axis), with treatments as indicated in panels. The number of mice evaluated for the data shown in Panels d-g was five (n = 5) for each rd10, rd10/Serpinf1^-/- and wild type. Each data point represents the average ± SD of each genotype, analyzed by ANOVA with Dunnett’s multiple comparisons. Statistical significance between H105A and vehicle is indicated by ##p ≤ 0.01, ###p ≤ 0.001, ####p ≤ 0.0001, and between H105A and 17-mer by **p ≤ 0.01, ***p ≤ 0.001, ****p ≤ 0.0001.

[3] = eye drops every other day P15-P23, ERG at P25

Row | SMILES | ONL thickness ([1]; daily eye drops 5 µl of 1 mg/ml P15-P24, assessed P25) | OS length and ONL thickness vs vehicle-treated or untreated eyes [1] | ONL thickness ([1]; eye drops every other day P15-P23, assessed P25) | affinity for PEDF-R (PEDF-R) | ERG response to low intensity light ([2]; daily eye drops 5 µl of 1 mg/ml P15-P24, ERG at P25) | ERG a-wave [2, 3] | ERG b-wave [2, 3] | function of rd10 photoreceptors ([2]; eye drops every other day, endpoint extended to P25)
1 | CC[C@H](C)[C@H](NC(=O)[C@H](CC(C)C)NC(=O)[C@H](CC(=O)O)NC(=O)[C@H](Cc1ccc(O)cc1)NC(=O)[C@H](Cc1ccc(O)cc1)NC(=O)[C@H](CC(C)C)NC(=O)[C@H](C)NC(=O)[C@H](CCCNC(=N)N)NC(=O)[C@H](C)NC(=O)[C@@H](NC(=O)[C@@H](NC(=O)[C@H](CO)NC(=O)[C@H](CCC(=O)O)NC(=O)[C@@H](NC(=O)[C@H](CCCNC(=N)N)NC(=O)[C@@H](N)CCC(N)=O)[C@@H](C)O)[C@@H](C)CC)[C@@H](C)CC)C(=O)N[C@@H](CO)C(=O)O [H105A] (H-QRTESIIARALYYDLIS-OH) | a rescue in the ONL thickness | longer OS and thicker outer nuclear layer | a rescue in the ONL thickness | have affinity for PEDF-R | improved rod photoreceptor function | an improvement in a-wave of ERG | no significant effect | improved the function of rd10 photoreceptors
2 | CC[C@H](C)[C@H](NC(=O)[C@H](CC(C)C)NC(=O)[C@H](CC(=O)O)NC(=O)[C@H](Cc1ccc(O)cc1)NC(=O)[C@H](Cc1ccc(O)cc1)NC(=O)[C@H](CC(C)C)NC(=O)[C@H](C)NC(=O)[C@H](CCCNC(=N)N)NC(=O)[C@H](Cc1c[nH]cn1)NC(=O)[C@@H](NC(=O)[C@@H](NC(=O)[C@H](CO)NC(=O)[C@H](CCC(=O)O)NC(=O)[C@@H](NC(=O)[C@H](C)NC(=O)[C@@H](N)CCC(N)=O)[C@@H](C)O)[C@@H](C)CC)[C@@H](C)CC)C(=O)N[C@@H](CO)C(=O)O [R99A] (H-QATESIIHRALYYDLIS-OH) | – | no effect | – | lacks PEDF-R affinity | – | – | – | –
